Measurements as given in ChEMBL document CHEMBL1275558 (Antimicrob Agents Chemother, 2008).

system: not listed separately; assay: Therapeutic index, ration of TD50 for human foreskin fibroblast cell infected with Toxoplasma gondii to ID 50 for Toxoplasma gondii; format: cell-based; conditions: read-out: TI

SMILES	selectivity ratio
O=C1Nc2ccc(F)cc2/C1=C1/Nc2ccccc2/C1=N\O	120
O=C1c2cc(F)ccc2-n2c1nc1ccccc1c2=O	31500
O=C1Nc2cc(Cl)c(Br)cc2/C1=C1/Nc2ccccc2/C1=N\O	> 210
O=C1c2ccc(Cl)cc2-n2c1nc1ccccc1c2=O	> 80
O=C1c2ccc(Br)cc2-n2c1nc1ccccc1c2=O	> 160
O=C1Nc2ccccc2/C1=C1/Nc2ccccc2/C1=N\OCC(O)CO (stereo not given)	> 2
O=C1c2cc(Br)c(Cl)cc2-n2c1nc1ccccc1c2=O	59
CC(=O)N1C(=O)/C(=C2\Nc3ccccc3C2=O)c2ccccc21	> 16
O=Nc1c(-c2c(O)[nH]c3cc(Cl)ccc23)[nH]c2ccccc12	110
O=C1C(c2c(O)[nH]c3ccc(I)cc23)=Nc2ccccc21	11
O=C1C(c2c(O)[nH]c3ccc(Br)cc23)=Nc2ccccc21	> 19
CC(=O)O/N=C1/C(c2c(O)[nH]c3ccccc23)=Nc2ccccc21	100
O=C1c2cc(Cl)ccc2-n2c1nc1ccccc1c2=O	33000
Cc1ccc2c(c1)C(=O)c1nc3ccccc3c(=O)n1-2	> 6100
O=Nc1c(-c2c(O)[nH]c3ccc(I)cc23)[nH]c2ccccc12	5
O=C1C(c2c(O)[nH]c3ccc(Cl)cc23)=Nc2ccccc21	> 8
O=Nc1c(-c2c(O)[nH]c3ccc([N+](=O)[O-])cc23)[nH]c2ccccc12	25
O=C1Nc2ccc(Cl)cc2/C1=C1/Nc2ccccc2/C1=N\O	23
O=C1c2cc(Br)ccc2-n2c1nc1ccccc1c2=O	> 160000
CC(=O)O/N=C1/C(=C2/C(=O)Nc3cc(Br)ccc32)Nc2ccccc21 [6-BROMOINDIRUBIN-3'-ACETOXIME]	12
O=C1Nc2ccc(Br)cc2/C1=C1/Nc2ccccc2/C1=N\O [INDIRUBIN 2]	9
O=Nc1c(-c2c(O)[nH]c3ccccc23)[nH]c2ccccc12 [INDIRUBIN-3-MONOXIME]	> 139
O=C1c2ccccc2-n2c1nc1ccccc1c2=O [TRYPTANTHRIN]	2000

system: Toxoplasma gondii; assay: Antimicrobial activity against Toxoplasma gondii; format: functional; conditions: read-out: ID50 (the source's name)

SMILES	IC50
O=C1Nc2ccc(F)cc2/C1=C1/Nc2ccccc2/C1=N\O	520 nM
Cc1ccc2c(c1)/C(=C1/Nc3ccccc3/C1=N\O)C(=O)N2	> 500000 nM
O=C1c2cc(F)ccc2-n2c1nc1ccccc1c2=O	2 nM
Cc1ccc2[nH]c(O)c(C3=Nc4ccccc4C3=O)c2c1	> 500000 nM
O=C1C(c2c(O)[nH]c3ccc(S(=O)(=O)O)cc23)=Nc2ccccc21	> 500000 nM
O=C1Nc2cc(Cl)c(Br)cc2/C1=C1/Nc2ccccc2/C1=N\O	2400 nM
O=C1c2cc(I)ccc2-n2c1nc1ccccc1c2=O	20 nM
O=C1c2ccc(Cl)cc2-n2c1nc1ccccc1c2=O	6300 nM
O=C1c2ccc(Br)cc2-n2c1nc1ccccc1c2=O	3000 nM
O=C1Nc2ccccc2/C1=C1/Nc2ccccc2/C1=N\OCC(O)CO (stereo not given)	230000 nM
O=C1c2cc(Br)c(Cl)cc2-n2c1nc1ccccc1c2=O	1700 nM
O=C1Nc2cc(Cl)c(Br)cc2/C1=C1/Nc2ccccc2C1=O	> 500000 nM
CC(=O)N1C(=O)/C(=C2\Nc3ccccc3C2=O)c2ccccc21	30000 nM
O=Nc1c(-c2c(O)[nH]c3cc(Cl)ccc23)[nH]c2ccccc12	180 nM
O=C1C(c2c(O)[nH]c3ccc(I)cc23)=Nc2ccccc21	22000 nM
O=C1C(c2c(O)[nH]c3ccc(Br)cc23)=Nc2ccccc21	27000 nM
O=C1C(c2c(O)[nH]c3ccc([N+](=O)[O-])cc23)=Nc2ccccc21	> 500000 nM

SMILES	IC50
CC(=O)O/N=C1/C(c2c(O)[nH]c3ccccc23)=Nc2ccccc21	210 nM
O=C1c2cc(Cl)ccc2-n2c1nc1ccccc1c2=O	11 nM
Cc1ccc2c(c1)C(=O)c1nc3ccccc3c(=O)n1-2	82 nM
O=Nc1c(-c2c(O)[nH]c3ccc(I)cc23)[nH]c2ccccc12	9700 nM
O=C1C(c2c(O)[nH]c3ccc(Cl)cc23)=Nc2ccccc21	60000 nM
O=C1C(c2c(O)[nH]c3ccc(F)cc23)=Nc2ccccc21	> 500000 nM
O=C1C(c2c(O)[nH]c3cc(Cl)ccc23)=Nc2ccccc21	> 500000 nM
O=Nc1c(-c2c(O)[nH]c3ccc([N+](=O)[O-])cc23)[nH]c2ccccc12	1100 nM
O=C1Nc2ccc(S(=O)(=O)O)cc2/C1=C1/Nc2ccccc2/C1=N\O	> 500000 nM
O=C1Nc2ccc(Cl)cc2/C1=C1/Nc2ccccc2/C1=N\O	2200 nM
O=C1c2cc(Br)ccc2-n2c1nc1ccccc1c2=O	3 nM
CC(=O)O/N=C1/C(=C2/C(=O)Nc3cc(Br)ccc32)Nc2ccccc21 [6-BROMOINDIRUBIN-3'-ACETOXIME]	3700 nM
O=C1Nc2ccc(Br)cc2/C1=C1/Nc2ccccc2/C1=N\O [INDIRUBIN 2]	1800 nM
O=Nc1c(-c2c(O)[nH]c3ccccc23)[nH]c2ccccc12 [INDIRUBIN-3-MONOXIME]	3600 nM
O=C1Nc2ccccc2/C1=C1/Nc2ccccc2C1=O [INDIRUBIN]	> 500000 nM
O=C1c2ccccc2-n2c1nc1ccccc1c2=O [TRYPTANTHRIN]	31 nM

system: not listed separately; assay: Cytotoxicity against human foreskin fibroblast cell infected with Toxoplasma gondii; format: cell-based; conditions: read-out: TD50 (the source's name)

SMILES	CC50
O=C1Nc2ccc(F)cc2/C1=C1/Nc2ccccc2/C1=N\O	61 µM
Cc1ccc2c(c1)/C(=C1/Nc3ccccc3/C1=N\O)C(=O)N2	> 500 µM
O=C1c2cc(F)ccc2-n2c1nc1ccccc1c2=O	63 µM
Cc1ccc2[nH]c(O)c(C3=Nc4ccccc4C3=O)c2c1	> 500 µM
O=C1C(c2c(O)[nH]c3ccc(S(=O)(=O)O)cc23)=Nc2ccccc21	> 500 µM
O=C1Nc2cc(Cl)c(Br)cc2/C1=C1/Nc2ccccc2/C1=N\O	> 500 µM
O=C1c2cc(I)ccc2-n2c1nc1ccccc1c2=O	> 500 µM
O=C1c2ccc(Cl)cc2-n2c1nc1ccccc1c2=O	> 500 µM
O=C1c2ccc(Br)cc2-n2c1nc1ccccc1c2=O	> 500 µM
O=C1Nc2ccccc2/C1=C1/Nc2ccccc2/C1=N\OCC(O)CO (stereo not given)	> 500 µM
O=C1c2cc(Br)c(Cl)cc2-n2c1nc1ccccc1c2=O	100 µM
O=C1Nc2cc(Cl)c(Br)cc2/C1=C1/Nc2ccccc2C1=O	> 500 µM
CC(=O)N1C(=O)/C(=C2\Nc3ccccc3C2=O)c2ccccc21	> 500 µM
O=Nc1c(-c2c(O)[nH]c3cc(Cl)ccc23)[nH]c2ccccc12	20 µM
O=C1C(c2c(O)[nH]c3ccc(I)cc23)=Nc2ccccc21	240 µM
O=C1C(c2c(O)[nH]c3ccc(Br)cc23)=Nc2ccccc21	> 500 µM
O=C1C(c2c(O)[nH]c3ccc([N+](=O)[O-])cc23)=Nc2ccccc21	> 500 µM

SMILES	CC50
CC(=O)O/N=C1/C(c2c(O)[nH]c3ccccc23)=Nc2ccccc21	22 µM
O=C1c2cc(Cl)ccc2-n2c1nc1ccccc1c2=O	360 µM
Cc1ccc2c(c1)C(=O)c1nc3ccccc3c(=O)n1-2	> 500 µM
O=Nc1c(-c2c(O)[nH]c3ccc(I)cc23)[nH]c2ccccc12	47 µM
O=C1C(c2c(O)[nH]c3ccc(Cl)cc23)=Nc2ccccc21	> 500 µM
O=C1C(c2c(O)[nH]c3ccc(F)cc23)=Nc2ccccc21	> 500 µM
O=C1C(c2c(O)[nH]c3cc(Cl)ccc23)=Nc2ccccc21	> 500 µM
O=Nc1c(-c2c(O)[nH]c3ccc([N+](=O)[O-])cc23)[nH]c2ccccc12	27 µM
O=C1Nc2ccc(S(=O)(=O)O)cc2/C1=C1/Nc2ccccc2/C1=N\O	> 500 µM
O=C1Nc2ccc(Cl)cc2/C1=C1/Nc2ccccc2/C1=N\O	51 µM
O=C1c2cc(Br)ccc2-n2c1nc1ccccc1c2=O	> 500 µM
CC(=O)O/N=C1/C(=C2/C(=O)Nc3cc(Br)ccc32)Nc2ccccc21 [6-BROMOINDIRUBIN-3'-ACETOXIME]	46 µM
O=C1Nc2cc(Br)ccc2/C1=C1/Nc2ccccc2/C1=N\O [6BIO]	16 µM
O=C1Nc2ccc(Br)cc2/C1=C1/Nc2ccccc2/C1=N\O [INDIRUBIN 2]	17 µM
O=Nc1c(-c2c(O)[nH]c3ccccc23)[nH]c2ccccc12 [INDIRUBIN-3-MONOXIME]	> 500 µM
O=C1Nc2ccccc2/C1=C1/Nc2ccccc2C1=O [INDIRUBIN]	> 500 µM
O=C1c2ccccc2-n2c1nc1ccccc1c2=O [TRYPTANTHRIN]	62 µM
